Assay results from patent publication US9480677B2, “Enantiomers of spiro-oxindole compounds and their uses as therapeutic agents” (Xenon Pharmaceuticals Inc., priority 2009, dated 2016).
In brackets after ≈: the same amount, converted by molar mass.

What was measured:
hNav1.7 [1] = biological target: T1, hNav1.7 (Homo sapiens, UniProt Q15858); assay: cell-based
[2] = Solubility in pharmaceutically acceptable excipients; assay type: physicochemical
Text: Thus, the (S)-enantiomer can be formulated in a fewer number of dosage units than the racemate. This property facilitates dosing patients at a higher level if needed to achieve efficacy.

hNav1.7 [3] = biological target: T1, hNav1.7; settings: (S)- versus (R)-enantiomer
[4] = system: chronic constriction injury neuropathic pain; assay: Neuropathic pain model; chronic constriction injury (CCI); assay type: in vivo; settings: topical ointment containing 2% (w/v)
[5] = system: histamine-induced pruritis; assay: Histamine-induced pruritis in vivo assay; parameters: species or system male ICR mice; settings: scored over 40 minutes
Description: Histamine induces pruritis (itching) in humans. Accordingly, this assay evaluates the efficacy of topically and orally administered (S)-enantiomer of the invention on histamine-induced pruritis in male ICR mice. […] One day prior to testing, the scapular regions on the animals were shaved with hair clippers. On the testing day, the animals were habituated for 60 minutes in the test chamber comprising of a clear plastic tube placed vertically on a flat surface. After the habituation period, the animals were removed from the plastic tube, placed in a restrainer, and injected with histamine at the shaved scapular region. The injections were made intradermally into the skin in small injection volumes (10 μL) using a Hamilton syringe. […] Immediately after the injections, the animals were returned to the test chambers and observed by cameras placed above the test chambers for a total of 50 minutes. The cameras were connected to a computer where digital video files were created, saved, and analyzed. The number of itching bouts was scored over 40 minutes. An “itching bout” was defined as the lifting of a hind leg, using it to scratch the scapular region, and then placing it back on the ground. […] The data were analyzed using GraphPad Prism 5 statistical analysis software and an unpaired t-test was used for univariate analysis. Results are expressed as mean±SEM. […]

T1 sequence (Q15858 whole entry): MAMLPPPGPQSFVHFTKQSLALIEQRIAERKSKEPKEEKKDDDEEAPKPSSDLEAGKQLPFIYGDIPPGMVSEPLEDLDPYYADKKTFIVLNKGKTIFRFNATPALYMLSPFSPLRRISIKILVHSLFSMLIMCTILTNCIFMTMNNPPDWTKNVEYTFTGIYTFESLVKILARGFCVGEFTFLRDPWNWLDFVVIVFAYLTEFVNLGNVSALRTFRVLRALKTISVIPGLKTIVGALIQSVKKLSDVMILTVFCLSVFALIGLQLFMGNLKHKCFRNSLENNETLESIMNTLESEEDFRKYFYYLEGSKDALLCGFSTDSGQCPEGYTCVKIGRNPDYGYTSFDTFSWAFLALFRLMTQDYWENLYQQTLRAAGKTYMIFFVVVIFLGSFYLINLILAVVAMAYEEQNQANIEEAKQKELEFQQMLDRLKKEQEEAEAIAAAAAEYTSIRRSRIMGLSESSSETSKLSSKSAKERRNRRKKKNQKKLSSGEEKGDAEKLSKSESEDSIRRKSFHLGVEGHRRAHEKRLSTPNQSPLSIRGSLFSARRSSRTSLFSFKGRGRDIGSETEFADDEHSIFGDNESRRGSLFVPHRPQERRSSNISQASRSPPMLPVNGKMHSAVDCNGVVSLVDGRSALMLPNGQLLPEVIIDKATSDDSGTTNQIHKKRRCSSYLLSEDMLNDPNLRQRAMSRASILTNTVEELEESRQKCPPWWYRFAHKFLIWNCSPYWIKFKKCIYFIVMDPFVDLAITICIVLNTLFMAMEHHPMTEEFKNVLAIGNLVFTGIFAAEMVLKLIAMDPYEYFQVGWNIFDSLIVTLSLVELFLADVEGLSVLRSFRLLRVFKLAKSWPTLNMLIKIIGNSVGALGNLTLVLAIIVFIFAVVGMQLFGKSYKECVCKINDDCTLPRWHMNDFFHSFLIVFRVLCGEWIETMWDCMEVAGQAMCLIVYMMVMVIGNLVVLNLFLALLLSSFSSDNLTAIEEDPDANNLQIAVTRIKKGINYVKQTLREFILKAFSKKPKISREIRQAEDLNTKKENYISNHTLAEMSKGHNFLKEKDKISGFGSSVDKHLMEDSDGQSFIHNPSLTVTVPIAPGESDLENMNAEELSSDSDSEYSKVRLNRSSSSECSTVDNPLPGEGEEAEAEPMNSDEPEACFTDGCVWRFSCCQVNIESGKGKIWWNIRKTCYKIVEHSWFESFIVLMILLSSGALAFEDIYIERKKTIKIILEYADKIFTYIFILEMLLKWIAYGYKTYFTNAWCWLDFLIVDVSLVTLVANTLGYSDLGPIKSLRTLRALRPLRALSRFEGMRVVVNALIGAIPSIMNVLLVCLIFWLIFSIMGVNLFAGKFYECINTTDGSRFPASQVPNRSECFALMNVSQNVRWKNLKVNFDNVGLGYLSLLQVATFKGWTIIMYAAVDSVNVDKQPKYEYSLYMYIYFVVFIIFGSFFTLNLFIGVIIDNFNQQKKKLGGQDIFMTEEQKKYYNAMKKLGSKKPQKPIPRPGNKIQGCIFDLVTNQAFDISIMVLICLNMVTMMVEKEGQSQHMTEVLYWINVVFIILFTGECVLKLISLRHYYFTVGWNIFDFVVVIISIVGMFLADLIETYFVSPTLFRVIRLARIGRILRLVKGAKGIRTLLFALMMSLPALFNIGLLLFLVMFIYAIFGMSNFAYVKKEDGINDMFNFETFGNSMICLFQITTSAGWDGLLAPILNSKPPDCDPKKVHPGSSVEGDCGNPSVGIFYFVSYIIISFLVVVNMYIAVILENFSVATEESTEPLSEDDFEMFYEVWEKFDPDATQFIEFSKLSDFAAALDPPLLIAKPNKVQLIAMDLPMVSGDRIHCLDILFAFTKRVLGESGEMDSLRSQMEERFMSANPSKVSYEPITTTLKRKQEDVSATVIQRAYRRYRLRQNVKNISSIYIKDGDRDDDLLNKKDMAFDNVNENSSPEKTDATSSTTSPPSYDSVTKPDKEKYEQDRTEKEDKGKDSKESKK

Compound: O=C1N(Cc2ccc(C(F)(F)F)o2)c2ccccc2[C@]12COc1cc3c(cc12)OCO3 [(I-S), (S)-1′-{[5-(trifluoromethyl)furan-2-yl]methyl}spiro[furo[2,3-f][1,3]benzodioxole-7,3′-indol]-2′(1′H)-one]
- IC50 (hNav1.7 [1]): 3 nM
- solubility ([2]; Ethanol, organic solvent or mixture): 36.4 mg/mL (≈ 84.8 mM)
- solubility ([2]; PEG 400, organic solvent or mixture): > 55 mg/mL
- solubility ([2]; Propylene glycol, organic solvent or mixture): 9.8 mg/mL (≈ 22.8 mM)
- solubility ([2]; oil or lipid, Capryol ® 90): 96 mg/mL (≈ 224 mM)
- solubility ([2]; oil or lipid, Labrasol ®): 231 mg/mL (≈ 538 mM)
- solubility ([2]; oil or lipid, Labrasol ®/Capryol ® 90 60/40): 191 mg/mL (≈ 445 mM)
- solubility ([2]; organic solvent or mixture, Labrasol ®/PEG 400 60/40): 182 mg/mL (≈ 424 mM)
- solubility ([2]; organic solvent or mixture, Labrasol ®/Transcutol ® 60/40): 186 mg/mL (≈ 433 mM)
- solubility ([2]; organic solvent or mixture, Tween ® 80): > 123 mg/mL
- inhibition potency against hNav1.7 compared to the (R)-enantiomer (hNav1.7 [3]): > 1000 fold
- reversal of pain responses, percent increase from baseline [4]: reversed pain responses
- total number of itching bouts ([5]; 50 mg of 8% (w/v) topical, n=16, vehicle 134.3±13.31): 89.00±10.51 itching bouts
- total number of itching bouts ([5]; 50 mg/Kg oral gavage, n=8, vehicle 42.88±6.667): 17.25±6.310 itching bouts
